The CheMixHub viscosity set
± gives the uncertainty stated by the source.

Assay: xn = mol fraction of the nth substance listed

Compound: CC(C)(C)O + CCCCCC
- viscosity (303.2 K, 101.33 kPa, x2 = 0.05): 2.298 ± 0.015 mPa·s
- viscosity (303.2 K, 101.33 kPa, x2 = 0.1): 1.677 ± 0.011 mPa·s
- viscosity (303.2 K, 101.33 kPa, x2 = 0.15): 1.306 ± 0.009 mPa·s
- viscosity (303.2 K, 101.33 kPa, x2 = 0.2): 1.052 ± 0.007 mPa·s
- viscosity (303.2 K, 101.33 kPa, x2 = 0.3): 0.749 ± 0.006 mPa·s
- viscosity (303.2 K, 101.33 kPa, x2 = 0.4): 0.568 ± 0.005 mPa·s
- viscosity (303.2 K, 101.33 kPa, x2 = 0.5): 0.465 ± 0.004 mPa·s
- viscosity (303.2 K, 101.33 kPa, x2 = 0.6): 0.41 ± 0.004 mPa·s
- viscosity (303.2 K, 101.33 kPa, x2 = 0.7): 0.361 ± 0.003 mPa·s
- viscosity (303.2 K, 101.33 kPa, x2 = 0.8): 0.319 ± 0.003 mPa·s
- viscosity (303.2 K, 101.33 kPa, x2 = 0.85): 0.302 ± 0.003 mPa·s
- viscosity (303.2 K, 101.33 kPa, x2 = 0.9): 0.289 ± 0.003 mPa·s
- viscosity (303.2 K, 101.33 kPa, x2 = 0.95): 0.281 ± 0.003 mPa·s

Compound: CC(C)(C)O + CCCCCCCC
- viscosity (303.15 K, 101 kPa, x1 = 0.9235): 2.015 ± 0.012 mPa·s
- viscosity (313.15 K, 101 kPa, x1 = 0.8499): 1.075 ± 0.0093 mPa·s
- viscosity (313.15 K, 101 kPa, x1 = 0.9): 1.275 ± 0.0098 mPa·s

Compound: CC(C)C=O + CCCCO
- viscosity (294.4 K, 100 kPa, x1 = 0.76): 8.02 ± 0.11 mPa·s
- viscosity (296.4 K, 100 kPa, x1 = 0.6): 13.17 ± 0.18 mPa·s
- viscosity (296.9 K, 100 kPa, x1 = 0.9): 5.36 ± 0.08 mPa·s
- viscosity (314.5 K, 100 kPa, x1 = 0.6): 8.56 ± 0.12 mPa·s

Compound: CCC(O)CO (stereo not drawn) + CCCCO
- viscosity (298.15 K, 100 kPa, x2 = 0.101): 34.46 ± 0.91 mPa·s
- viscosity (298.15 K, 100 kPa, x2 = 0.2): 23.34 ± 0.6 mPa·s
- viscosity (298.15 K, 100 kPa, x2 = 0.302): 17.03 ± 0.42 mPa·s
- viscosity (298.15 K, 100 kPa, x2 = 0.4): 12.19 ± 0.3 mPa·s
- viscosity (298.15 K, 100 kPa, x2 = 0.5): 8.818 ± 0.21 mPa·s
- viscosity (298.15 K, 100 kPa, x2 = 0.601): 6.546 ± 0.16 mPa·s
- viscosity (298.15 K, 100 kPa, x2 = 0.701): 5.014 ± 0.12 mPa·s
- viscosity (298.15 K, 100 kPa, x2 = 0.801): 3.978 ± 0.091 mPa·s
- viscosity (298.15 K, 100 kPa, x2 = 0.901): 3.113 ± 0.071 mPa·s
- viscosity (303.15 K, 100 kPa, x2 = 0.101): 25.85 ± 0.67 mPa·s
- viscosity (303.15 K, 100 kPa, x2 = 0.2): 17.61 ± 0.44 mPa·s
- viscosity (303.15 K, 100 kPa, x2 = 0.302): 13.14 ± 0.31 mPa·s
- viscosity (303.15 K, 100 kPa, x2 = 0.4): 10.08 ± 0.24 mPa·s
- viscosity (303.15 K, 100 kPa, x2 = 0.5): 7.482 ± 0.18 mPa·s
- viscosity (303.15 K, 100 kPa, x2 = 0.601): 5.629 ± 0.13 mPa·s
- viscosity (303.15 K, 100 kPa, x2 = 0.701): 4.383 ± 0.1 mPa·s
- viscosity (303.15 K, 100 kPa, x2 = 0.801): 3.441 ± 0.079 mPa·s
- viscosity (303.15 K, 100 kPa, x2 = 0.901): 2.757 ± 0.062 mPa·s
- viscosity (308.15 K, 100 kPa, x2 = 0.101): 19.83 ± 0.5 mPa·s
- viscosity (308.15 K, 100 kPa, x2 = 0.2): 13.86 ± 0.34 mPa·s
- viscosity (308.15 K, 100 kPa, x2 = 0.302): 10.42 ± 0.24 mPa·s
- viscosity (308.15 K, 100 kPa, x2 = 0.4): 8.155 ± 0.19 mPa·s
- viscosity (308.15 K, 100 kPa, x2 = 0.5): 6.2 ± 0.15 mPa·s
- viscosity (308.15 K, 100 kPa, x2 = 0.601): 4.703 ± 0.11 mPa·s
- viscosity (308.15 K, 100 kPa, x2 = 0.701): 3.738 ± 0.085 mPa·s
- viscosity (308.15 K, 100 kPa, x2 = 0.801): 2.982 ± 0.068 mPa·s
- viscosity (308.15 K, 100 kPa, x2 = 0.901): 2.41 ± 0.054 mPa·s
- viscosity (313.15 K, 100 kPa, x2 = 0.101): 15.54 ± 0.39 mPa·s
- viscosity (313.15 K, 100 kPa, x2 = 0.2): 10.92 ± 0.27 mPa·s
- viscosity (313.15 K, 100 kPa, x2 = 0.302): 8.434 ± 0.19 mPa·s
- viscosity (313.15 K, 100 kPa, x2 = 0.4): 6.703 ± 0.15 mPa·s
- viscosity (313.15 K, 100 kPa, x2 = 0.5): 5.179 ± 0.12 mPa·s
- viscosity (313.15 K, 100 kPa, x2 = 0.601): 3.992 ± 0.092 mPa·s
- viscosity (313.15 K, 100 kPa, x2 = 0.701): 3.217 ± 0.073 mPa·s
- viscosity (313.15 K, 100 kPa, x2 = 0.801): 2.596 ± 0.058 mPa·s
- viscosity (313.15 K, 100 kPa, x2 = 0.901): 2.122 ± 0.047 mPa·s
- viscosity (318.15 K, 100 kPa, x2 = 0.101): 12.35 ± 0.3 mPa·s
- viscosity (318.15 K, 100 kPa, x2 = 0.2): 8.882 ± 0.21 mPa·s
- viscosity (318.15 K, 100 kPa, x2 = 0.302): 6.942 ± 0.16 mPa·s
- viscosity (318.15 K, 100 kPa, x2 = 0.4): 5.58 ± 0.13 mPa·s
- viscosity (318.15 K, 100 kPa, x2 = 0.501): 4.373 ± 0.1 mPa·s
- viscosity (318.15 K, 100 kPa, x2 = 0.601): 3.419 ± 0.078 mPa·s
- viscosity (318.15 K, 100 kPa, x2 = 0.701): 2.793 ± 0.063 mPa·s
- viscosity (318.15 K, 100 kPa, x2 = 0.801): 2.271 ± 0.051 mPa·s
- viscosity (318.15 K, 100 kPa, x2 = 0.901): 1.874 ± 0.042 mPa·s
- viscosity (323.15 K, 100 kPa, x2 = 0.101): 9.916 ± 0.24 mPa·s
- viscosity (323.15 K, 100 kPa, x2 = 0.2): 7.286 ± 0.17 mPa·s
- viscosity (323.15 K, 100 kPa, x2 = 0.302): 5.744 ± 0.13 mPa·s
- viscosity (323.15 K, 100 kPa, x2 = 0.4): 4.694 ± 0.11 mPa·s
- viscosity (323.15 K, 100 kPa, x2 = 0.501): 3.724 ± 0.085 mPa·s
- viscosity (323.15 K, 100 kPa, x2 = 0.601): 2.942 ± 0.067 mPa·s
- viscosity (323.15 K, 100 kPa, x2 = 0.701): 2.417 ± 0.054 mPa·s
- viscosity (323.15 K, 100 kPa, x2 = 0.801): 1.989 ± 0.044 mPa·s
- viscosity (323.15 K, 100 kPa, x2 = 0.901): 1.66 ± 0.037 mPa·s

Compound: COCCOCCOCCO + CCC(C)O
- viscosity (298.15 K, 101 kPa, x1 = 0.0039): 3.101 ± 0.055 mPa·s
- viscosity (298.15 K, 101 kPa, x1 = 0.0079): 3.074 ± 0.054 mPa·s
- viscosity (298.15 K, 101 kPa, x1 = 0.0151): 3.046 ± 0.054 mPa·s
- viscosity (298.15 K, 101 kPa, x1 = 0.0318): 2.988 ± 0.053 mPa·s
- viscosity (298.15 K, 101 kPa, x1 = 0.0511): 2.947 ± 0.052 mPa·s
- viscosity (298.15 K, 101 kPa, x1 = 0.08): 2.893 ± 0.051 mPa·s
- viscosity (298.15 K, 101 kPa, x1 = 0.1038): 2.942 ± 0.052 mPa·s
- viscosity (308.15 K, 101 kPa, x1 = 0.0039): 2.163 ± 0.039 mPa·s
- viscosity (308.15 K, 101 kPa, x1 = 0.0079): 2.161 ± 0.039 mPa·s
- viscosity (308.15 K, 101 kPa, x1 = 0.0151): 2.148 ± 0.038 mPa·s
- viscosity (308.15 K, 101 kPa, x1 = 0.0318): 2.133 ± 0.038 mPa·s
- viscosity (308.15 K, 101 kPa, x1 = 0.0511): 2.132 ± 0.038 mPa·s
- viscosity (308.15 K, 101 kPa, x1 = 0.08): 2.128 ± 0.038 mPa·s
- viscosity (308.15 K, 101 kPa, x1 = 0.1038): 2.186 ± 0.039 mPa·s
- viscosity (318.15 K, 101 kPa, x1 = 0.0039): 1.565 ± 0.029 mPa·s
- viscosity (318.15 K, 101 kPa, x1 = 0.0079): 1.562 ± 0.028 mPa·s
- viscosity (318.15 K, 101 kPa, x1 = 0.0151): 1.564 ± 0.028 mPa·s
- viscosity (318.15 K, 101 kPa, x1 = 0.0318): 1.569 ± 0.029 mPa·s
- viscosity (318.15 K, 101 kPa, x1 = 0.0511): 1.577 ± 0.029 mPa·s
- viscosity (318.15 K, 101 kPa, x1 = 0.08): 1.611 ± 0.029 mPa·s
- viscosity (318.15 K, 101 kPa, x1 = 0.1038): 1.674 ± 0.03 mPa·s

Compound: CC(C)(C)O + CC(C)O
- viscosity (303.2 K, 101.33 kPa, x2 = 0.05): 3.297 ± 0.022 mPa·s
- viscosity (303.2 K, 101.33 kPa, x2 = 0.1): 3.237 ± 0.021 mPa·s
- viscosity (303.2 K, 101.33 kPa, x2 = 0.15): 3.172 ± 0.021 mPa·s
- viscosity (303.2 K, 101.33 kPa, x2 = 0.2): 3.101 ± 0.02 mPa·s
- viscosity (303.2 K, 101.33 kPa, x2 = 0.3): 2.931 ± 0.019 mPa·s
- viscosity (303.2 K, 101.33 kPa, x2 = 0.4): 2.75 ± 0.018 mPa·s
- viscosity (303.2 K, 101.33 kPa, x2 = 0.5): 2.572 ± 0.017 mPa·s
- viscosity (303.2 K, 101.33 kPa, x2 = 0.6): 2.396 ± 0.015 mPa·s
- viscosity (303.2 K, 101.33 kPa, x2 = 0.7): 2.224 ± 0.014 mPa·s
- viscosity (303.2 K, 101.33 kPa, x2 = 0.8): 2.059 ± 0.013 mPa·s
- viscosity (303.2 K, 101.33 kPa, x2 = 0.85): 1.979 ± 0.013 mPa·s
- viscosity (303.2 K, 101.33 kPa, x2 = 0.9): 1.9 ± 0.012 mPa·s
- viscosity (303.2 K, 101.33 kPa, x2 = 0.95): 1.831 ± 0.012 mPa·s
